Assay results: PubChem BioAssay (NCI)
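Dose response: 5 concentrations. Exposure: 48 h. Format: 96-well plates. Endpoint: linear interpolation; highest concentration if not reached. At the GI50, growth is halved. Definition used: TGI = concentration required for complete inhibition of growth.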

Columns and labels:
Test in all cases: DTP human tumour cell line panel, 48 h
[1] = tested on: UACC-257 melanoma
[2] = tested on: SF-539 CNS
[3] = tested on: HT29 colon
[4] = tested on: OVCAR-5 ovarian
[5] = tested on: UACC-62 melanoma
[6] = tested on: NCI-H522 lung
[7] = tested on: HCT-116 colon
[8] = tested on: SNB-75 CNS
[9] = tested on: LOX IMVI melanoma
[10] = tested on: NCI-H226 lung
[11] = tested on: MALME-3M melanoma
[12] = tested on: RXF 393 renal
[13] = tested on: SF-295 CNS
[14] = tested on: HL-60(TB) leukemia
[15] = tested on: SK-MEL-2 melanoma
[16] = tested on: NCI-H23 lung
[17] = tested on: MDA-MB-231 breast
[18] = tested on: 786-0 renal
[19] = tested on: COLO 205 colon
[20] = tested on: OVCAR-3 ovarian
[21] = tested on: PC-3 prostate
[22] = tested on: SNB-19 CNS
[23] = tested on: EKVX NSCLC
[24] = tested on: BT-549 breast
[25] = tested on: DU-145 prostate
[26] = tested on: NCI/ADR-RES ovarian
[27] = tested on: UO-31 renal
[28] = tested on: A549 NSCLC
[29] = tested on: KM12 colon
[30] = tested on: ACHN renal
[31] = tested on: SK-OV-3 ovarian
[32] = tested on: HOP-92 NSCLC
[33] = tested on: U251 CNS
[34] = tested on: OVCAR-8 ovarian
[35] = tested on: A498 renal
[36] = tested on: CCRF-CEM leukemia
[37] = tested on: M14 melanoma
[38] = tested on: SK-MEL-5 melanoma
[39] = tested on: SW-620 colon
[40] = tested on: SN12C renal
[41] = tested on: K-562 leukemia
[42] = tested on: HOP-62 NSCLC
[43] = tested on: T-47D breast
[44] = tested on: OVCAR-4 ovarian
[45] = tested on: MDA-MB-435
[46] = tested on: HCT-15 colon
[47] = tested on: SK-MEL-28 melanoma
[48] = tested on: HCC-2998 colon
[49] = tested on: NCI-H460 lung
[50] = tested on: TK-10 renal
[51] = tested on: MCF7 breast
[52] = tested on: CAKI-1 renal
[53] = tested on: IGROV1 ovarian
[54] = tested on: HS 578T breast
[55] = tested on: SR leukemia
[56] = tested on: RPMI-8226 leukemia
[57] = tested on: SF-268 CNS

With C#C[C@]1(O)CC[C@H]2[C@@H]3CC=C4c5sc(-c6cccc(O)c6)nc5CC[C@]4(C)[C@H]3CC[C@@]21C the GI50 [1] was 1860 nM, the TGI [1] was 4630 nM and the GI50 [2] was 151 nM. The TGI [2] was 538 nM, the GI50 [3] was 3170 nM and the TGI [3] was 10800 nM. It also gave a GI50 [4] of 2250 nM, a TGI [4] of 5930 nM and a GI50 [5] of 2300 nM. It also gave a TGI [5] of 5550 nM, a GI50 [6] of 1480 nM and a TGI [6] of 3580 nM. It also gave a GI50 [7] of 993 nM, a TGI [7] of 3000 nM and a GI50 [8] of 319 nM. The TGI [8] was 6100 nM, the GI50 [9] was 269 nM and the TGI [9] was 1260 nM. The GI50 [10] was 5250 nM, the TGI [10] was 25000 nM and the GI50 [11] was 421 nM. It also gave a TGI [11] of 2980 nM, a GI50 [12] of 177 nM and a TGI [12] of 449 nM. For the same compound, the GI50 [13] was 178 nM, the TGI [13] was 437 nM and the GI50 [14] was 835 nM. The TGI [14] was 6120 nM, the GI50 [15] was 528 nM and the TGI [15] was 2390 nM. For the same compound, the GI50 [16] was 1550 nM, the TGI [16] was 3670 nM and the GI50 [17] was 1050 nM. The TGI [17] was 4100 nM, the GI50 [18] was 386 nM and the TGI [18] was 1880 nM. The GI50 [19] was 5410 nM, the TGI [19] was 20800 nM and the GI50 [20] was 2480 nM. The TGI [20] was 7460 nM, the GI50 [21] was 357 nM and the TGI [21] was 1720 nM. For the same compound, the GI50 [22] was 1260 nM, the TGI [22] was 4280 nM and the GI50 [23] was 2500 nM. The TGI [23] was 10700 nM, the GI50 [24] was 1070 nM and the TGI [24] was 3470 nM. It also gave a GI50 [25] of 2450 nM, a TGI [25] of 17500 nM and a GI50 [26] of 1950 nM. The TGI [26] was 5580 nM, the GI50 [27] was 460 nM and the TGI [27] was 5750 nM. It also gave a GI50 [28] of 2570 nM, a TGI [28] of 11000 nM and a GI50 [29] of 1150 nM. It also gave a TGI [29] of 5000 nM, a GI50 [30] of 687 nM and a TGI [30] of 6720 nM. The GI50 [31] was 2070 nM, the TGI [31] was 6830 nM and the GI50 [32] was 1450 nM. For the same compound, the TGI [32] was 3070 nM, the GI50 [33] was 688 nM and the TGI [33] was 2960 nM. For the same compound, the GI50 [34] was 2100 nM, the TGI [34] was over 100000 nM and the GI50 [35] was 15200 nM. For the same compound, the TGI [35] was 32500 nM, the GI50 [36] was 339 nM and the TGI [36] was over 100000 nM. The GI50 [37] was 252 nM, the TGI [37] was 671 nM and the GI50 [38] was 1650 nM. The TGI [38] was 3060 nM, the GI50 [39] was 653 nM and the TGI [39] was 2360 nM. It also gave a GI50 [40] of 2300 nM, a TGI [40] of 9980 nM and a GI50 [41] of 506 nM. For the same compound, the TGI [41] was over 100000 nM, the GI50 [42] was 1480 nM and the TGI [42] was 4390 nM. For the same compound, the GI50 [43] was 2580 nM, the TGI [43] was 7270 nM and the GI50 [44] was 2730 nM. It also gave a TGI [44] of 9520 nM, a GI50 [45] of 1320 nM and a TGI [45] of 3940 nM. The GI50 [46] was 505 nM, the TGI [46] was 1940 nM and the GI50 [47] was 236 nM. It also gave a TGI [47] of 640 nM, a GI50 [48] of 1810 nM and a TGI [48] of 5120 nM. It also gave a GI50 [49] of 2570 nM, a TGI [49] of 7130 nM and a GI50 [50] of 2760 nM. For the same compound, the TGI [50] was 9190 nM, the GI50 [51] was 1560 nM and the TGI [51] was 4390 nM. It also gave a GI50 [52] of 2250 nM, a TGI [52] of 5150 nM and a GI50 [53] of 2980 nM. For the same compound, the TGI [53] was 10300 nM, the GI50 [54] was 207 nM and the TGI [54] was 642 nM. It also gave a GI50 [55] of 460 nM, a TGI [55] of over 100000 nM and a GI50 [56] of 157 nM. For the same compound, the TGI [56] was 725 nM, the GI50 [57] was 1990 nM and the TGI [57] was 17500 nM.
